Assay results published in patent publication US10899764B2, “Imidazo isoindole derivative, preparation method therefor and medical use thereof” (Jiangsu Hengrui Medicine Co., Ltd., priority 2015, dated 2021).
pIC50: −log10 of the molar value. Counter-ions that a name gives are not always drawn. Like-named read-outs stand apart in the source and are kept apart here.

Key:
human TDO = human TDO (Homo sapiens (Human), UniProt P48775); assay: Inhibition activity on human TDO (tryptophan 2,3-dioxygenase) (enzyme assay, absorbance at 480 nm); assay type: biochemical; conditions: read-out: IC50 for inhibiting the activity of human TDO
Sequence of human TDO (P48775 whole entry): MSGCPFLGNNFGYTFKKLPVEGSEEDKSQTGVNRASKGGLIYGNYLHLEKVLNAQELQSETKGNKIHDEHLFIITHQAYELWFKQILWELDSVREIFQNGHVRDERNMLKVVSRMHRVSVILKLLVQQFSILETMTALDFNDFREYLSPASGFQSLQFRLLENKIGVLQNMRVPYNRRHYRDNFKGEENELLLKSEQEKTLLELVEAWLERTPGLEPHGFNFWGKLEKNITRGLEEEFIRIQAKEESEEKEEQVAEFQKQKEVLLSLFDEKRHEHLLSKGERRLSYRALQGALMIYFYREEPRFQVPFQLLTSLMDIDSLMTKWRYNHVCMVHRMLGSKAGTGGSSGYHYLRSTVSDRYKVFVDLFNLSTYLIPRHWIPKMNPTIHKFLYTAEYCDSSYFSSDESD
Method: Assay for Determining the Inhibition activity of the Compounds of the Present Invention on Human TDO (tryptophan 2,3-dioxygenase)
Human TDO activity was tested in vitro by the following method.
This method is used to determine the inhibition effect of the compounds of the present invention on the activity of human TDO.
Plasmids constructed with the human TDO gene were transferred to competent Escherichia coli Rosseta. The TDO gene was scaled-up by culturing in liquid LB (Luria-Bertani) medium [which was prepared per liter according to “Molecular Cloning A Laboratory Manual” (J. Sambrook, D. W. Russell)]). The bacteria were collected and lysed by ultrasonic waves. The purified TDO was obtained by eluting from a column.
For testing, 24 μL of enzyme (TDO) was diluted 100 times with 50 mM KPB to 2400 μL. The concentration of the enzyme solution was 2.6 ng/μL. A 96 well reaction plate (AXYGEN, PCR-96-FLT-C) (hereinafter referred to as the “reaction plate”) was added with the enzyme solution at 24 μL/well. The blank well was added with 24 μL of KPB [Preparation of KPB buffer (50 mM): 6.805 g of KH2PO4 was weighed using an analytical balance, and placed into a 1000 mL beaker, deionized water was added with a measuring cylinder to 900 mL, the pH was adjusted to 6.5 by 1M KOH, then the mixture was introduced into a 1 L measuring cylinder, and water was added to 1 L. It was stored at 4° C.]. Then, 1 μL of a compound or DMSO was added into the corresponding wells in the reaction plate. Preparation of solution A: 200 μL of 500 mM L-sodium ascorbate was added with 1050 μL of KPB, then the mixture was mixed uniformly for 3 seconds at the maximum speed in a turbine mixer. Solution B: 100 μL of 10 mM tryptophan was added with 100 μL of 100,000 unit/ml catalase, 5 μL of 10 mM methylene blue, and 1050 μL of KPB successively, then the mixture was mixed uniformly for 3 seconds at the maximum speed in a turbine mixer. Then, 1200 μL of solution A and 1200 μL of solution B were taken and mixed uniformly for 3 seconds at the maximum speed in a turbine mixer. The mixture was added to the reaction plate at 24 μL/well. The reaction plate was placed in a plate centrifuge and centrifuged for 15 seconds at the maximum speed, so that the reaction liquids converged to the bottom. The reaction mixture was mixed uniformly for 30 seconds on a shaker, and incubated for 1 hour at 37° C. in a constant temperature incubator. In the reaction plate, 30% (W/V) trichloroacetic acid was added at 10 μL/well, then the mixture was incubated for 15 minutes at 65° C. in a incubator. The reaction plate was centrifuged in a centrifuge for 5 minutes at 4700 RPM at room temperature. […] Then, 2% (W/V) 4-(dimethylamino)benzaldehyde/glacial acetic acid solution was added at 40 μL/well, then the mixture was mixed uniformly for 1 minute on a shaker at the maximum speed. After incubation for 2 minutes at room temperature, the absorbance at 480 nm was read on a Synergy HT Reader.
The inhibition activity of the compounds of the present invention on human TDO was tested by the assay described above.

human IDO1 = human IDO1 (Homo sapiens (Human), UniProt P14902); assay: Inhibition activity on human IDO1 (enzyme assay, absorbance at 480 nm); assay type: biochemical; conditions: read-out: IC50 for inhibiting the activity of human IDO1
Sequence of human IDO1 (P14902 whole entry): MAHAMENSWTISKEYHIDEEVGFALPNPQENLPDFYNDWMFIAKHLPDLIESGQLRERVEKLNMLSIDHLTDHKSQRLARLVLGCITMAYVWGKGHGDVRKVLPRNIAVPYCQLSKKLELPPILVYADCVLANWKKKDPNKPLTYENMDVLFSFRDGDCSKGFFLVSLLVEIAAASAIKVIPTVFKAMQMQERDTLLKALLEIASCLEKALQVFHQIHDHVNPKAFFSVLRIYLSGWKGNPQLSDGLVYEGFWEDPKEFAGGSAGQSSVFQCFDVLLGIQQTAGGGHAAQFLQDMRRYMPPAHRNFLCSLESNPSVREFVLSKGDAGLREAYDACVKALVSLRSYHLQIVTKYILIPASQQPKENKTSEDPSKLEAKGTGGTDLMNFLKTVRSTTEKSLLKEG
Method: Assay for Determining the Inhibition Activity of the Present Compounds on Human IDO1
Human IDO1 activity was tested in vitro by the following method.
This method is used to determine the inhibition effect of the compounds of the present invention on the activity of human IDO1.
The human IDO1 gene was transferred to Pet30a plasmid by gene cloning, and then transferred to competent Escherichia coli Rosseta. The IDO1 gene was scaled-up by culturing in liquid LB (Luria-Bertani) medium [which was prepared per liter according to “Molecular Cloning A Laboratory Manual” (J. Sambrook, D. W. Russell)]). The bacteria were collected and lysed by ultrasonic waves. The purified IDO1 was obtained by eluting from a column.
For testing, 24 μL of enzyme (IDO1) was diluted 100 times with 50 mM KPB to 2400 μL. The concentration of the enzyme solution was 2.6 ng/μL. A 96 well reaction plate (AXYGEN, PCR-96-FLT-C) (hereinafter referred to as the “reaction plate”) was added with the enzyme solution at 24 μL/well. The blank well was added with 24 μL of KPB [Preparation of KPB buffer (50 mM): 6.805 g of KH2PO4 was weighed using an analytical balance, and placed into a 1000 mL beaker, deionized water was added with a measuring cylinder to 900 ml, the pH was adjusted to 6.5 by 1M KOH, then the mixture was introduced into a 1 L measuring cylinder, and water was added to 1 L. It was stored at 4° C.]. Then, 1 μL of a compound or DMSO was added into the corresponding wells in the reaction plate. Preparation of solution A: 200 μL of 500 mM L-sodium ascorbate were added with 1050 μL of KPB, then the mixture was mixed uniformly for 3 seconds at the maximum speed in a turbine mixer. Solution B: 100 μL of 10 mM tryptophan were added with 100 μL of 100,000 unit/mL catalase, 5 μL of 10 mM methylene blue, and 1050 μL of KPB successively, then the mixture was mixed uniformly for 3 seconds at the maximum speed in a turbine mixer. Then, 1200 μL of solution A and 1200 μL of solution B were taken and mixed uniformly for 3 seconds at the maximum speed in a turbine mixer. The mixture was added to the reaction plate at 24 μL/well. The reaction plate was placed in a plate centrifuge and centrifuged for 15 seconds at the maximum speed, so that the reaction liquids converged to the bottom. The reaction mixture was mixed uniformly for 30 seconds on a shaker, and incubated for 1 hour at 37° C. in a constant temperature incubator. In the reaction plate, 30% (W/V) trichloroacetic acid was added at 10 μL/well, then the mixture was incubated for 15 minutes at 65° C. in an incubator. The reaction plate was centrifuged in a centrifuge for 5 minutes at 4700 RPM at room temperature. […] Then, 2% (W/V) 4-(dimethylamino)benzaldehyde/glacial acetic acid solution was added at 40 μL/well, and the mixture was mixed uniformly for 1 minute on a shaker at the maximum speed. After incubation for 2 minutes at room temperature, the absorbance at 480 nm was read on a Synergy HT (BIOTEK) reader.
The inhibition activity of the compounds of the present invention on human IDO1 was tested by the assay described above.

IDO in HeLa cells = IDO in HeLa cells (Homo sapiens (Human), UniProt P14902); assay: Inhibition activity on IDO in HeLa cells (INF-γ induced); assay type: cell-based; conditions: read-out: IC50 for inhibiting the activity of IDO in HeLa cells
Sequence of IDO in HeLa cells (P14902 whole entry): as above
Method: Assay for Determining the Inhibition Activity of the Present Compounds on IDO in HeLa Cells
IDO activity in HeLa cells was tested in vitro by the following method.
This method is used to determine the inhibition effect of the compounds of the present invention on the activity of IDO in HeLa cells. (Note: indoleamine 2,3-dioxygenase (IDO) is expressed in the HeLa cell line and induced by interferon gamma (INF-γ)).
The supernatant was removed, serum-free DMEM high glucose medium was added at 90 μL/well, then the compounds contained in the culture medium with INF-γ and tryptophan were added at 10 μL/well (the final concentrations: 10000, 1000, 100, 10, 1, 0.1 nM). […] Then, 80 μL of the supernate was transferred from the 96-well cell culture plate to a 96 well round-bottomed plate, then 30% (W/V) trichloroacetic acid was added at 16 μL/well, then the mixture was incubated for 25 minutes at 65° C. in an incubator. The reaction plate was centrifuged in a centrifuge for 5 minutes at 4700 RPM. Then, 50 μL of the supernatant was transferred from the reaction plate to a 96-well flat-bottomed transparent plate by a multi-channel pipette. Then, 2% (W/V) 4-(dimethylamino)benzaldehyde/glacial acetic acid solution was added at 50 μL/well, then the mixture was mixed uniformly for 1 minute on a shaker. After incubation for 2 minutes at room temperature, the absorbance at 480 nm was read on a Synergy HT Reader.
The inhibition activity of the compounds of the present invention on IDO in HeLa cells was tested by the assay described above.

[1] = purified recombinant human TDO, 1 hour at 37° C.
[2] = HeLa cells, INF-γ and tryptophan, 48 hours
[3] = purified recombinant human IDO1, 1 hour at 37° C.

pIC50 (human TDO; [1])	pIC50 (IDO in HeLa cells; [2])	pIC50 (human IDO1; [3])	SMILES	pIC50 (human TDO)	pIC50 (human IDO1)	pIC50 (IDO in HeLa cells)
			Fc1cccc2c1C(C1CCN(c3ccccc3)CC1)n1cncc1-2 (centres unmarked) [Example 1, 6-fluoro-5-(1-phenylpiperidin-4-yl)-5H-imidazo[5,1-a]isoindole trifluoroacetate]	6.47	7.06	
			Fc1ccc2c(c1)C(C1CCN(c3ccccc3)CC1)n1cncc1-2 (centres unmarked) [Example 2, 7-fluoro-5-(1-phenylpiperidin-4-yl)-5H-imidazo[5,1-a]isoindole trifluoroacetate]	6.67		
			N#Cc1ccc(N2CCC(C3c4c(F)cccc4-c4cncn43)CC2)cc1 (centres unmarked) [Example 5, 4-(4-(6-fluoro-5H-imidazo[5,1-a]isoindol-5-yl)piperidin-1-yl)benzonitrile trifluoroacetate]	6.40	7.09	6.45
			NC(=O)c1ccc(N2CCC(C3c4c(F)cccc4-c4cncn43)CC2)cc1 (centres unmarked) [Example 6, 4-(4-(6-fluoro-5H-imidazo[5,1-a]isoindol-5-yl)piperidin-1-yl)benzamide trifluoroacetate]	6.40		
6.44	6.70	7.47	Fc1cccc2c1C(C1CCN(c3ncc(-c4cnn(C5CCOCC5)c4)cn3)CC1)n1cncc1-2 (centres unmarked) [Example 18, 6-fluoro-5-(1-(5-(1-(tetrahydro-2H-pyran-4-yl)-1H-pyrazol-4-yl)pyrimidin-2-yl)piperidin-4-yl)-5H-imidazo[5,1-a]isoindole]			
6.40	6.36	7.32	Fc1cccc2c1C(C1CCN(c3ncc(-c4ccccc4)s3)CC1)n1cncc1-2 (centres unmarked) [Example 23, 2-(4-(6-fluoro-5H-imidazo[5,1-a]isoindol-5-yl)piperidin-1-yl)-5-phenylthiazole trifluoroacetate]			
			Fc1cccc2c1C(C1CCN(c3ccccc3)C1)n1cncc1-2 (centres unmarked) [Example 25, 6-fluoro-5-(1-phenylpyrrolidin-3-yl)-5H-imidazo[5,1-a]isoindole trifluoroacetate]	6.59		
6.66	6.53	7.45	OC[C@@H](O)Cn1cc(-c2ccc(N3CCC(C4c5c(F)cccc5-c5cncn54)CC3)cc2)cn1 (stereo partly drawn) [Example 29, (2S)-3-(4-(4-(4-(6-fluoro-5H-imidazo[5,1-a]isoindol-5-yl)piperidin-1-yl)phenyl)-1H-pyrazol-1-yl)propane-1,2-diol]			
6.50	6.48	7.23	OC[C@H](O)Cn1cc(-c2ccc(N3CCC(C4c5c(F)cccc5-c5cncn54)CC3)cc2)cn1 (stereo partly drawn) [Example 30, (2R)-3-(4-(4-(4-(6-fluoro-5H-imidazo[5,1-a]isoindol-5-yl)piperidin-1-yl)phenyl)-1H-pyrazol-1-yl)propane-1,2-diol trifluoroacetate]			
6.98	7.56	7.98	Nc1cc(-c2nnc(N3CCC(C4c5c(F)cccc5-c5cncn54)CC3)s2)ccn1 (centres unmarked) [Example 36, 4-(5-(4-(6-fluoro-5H-imidazo[5,1-a]isoindol-5-yl)piperidin-1-yl)-1,3,4-thiadiazol-2-yl)pyridin-2-amine trifluoroacetate]			
6.61	6.70	7.81	CS(=O)(=O)N1CCC(Oc2ccc(N3CCC(C4c5c(F)cccc5-c5cncn54)CC3)cc2)CC1 (centres unmarked) [Example 39, 6-fluoro-5-(1-(4-((1-(methylsulfonyl)piperidin-4-yl)oxy)phenyl)piperidin-4-yl)-5H-imidazo[5,1-a]isoindole]			

SMILES	pIC50 (human TDO; [1])	pIC50 (IDO in HeLa cells; [2])	pIC50 (human IDO1; [3])	pIC50 (human TDO)	pIC50 (human IDO1)	pIC50 (IDO in HeLa cells)
N#Cc1ccc(N2CCC(C3c4c(F)cccc4-c4cncn43)CC2)cc1F (centres unmarked) [Example 45, 2-fluoro-4-(4-(6-fluoro-5H-imidazo[5,1-a]isoindol-5-yl)piperidin-1-yl)benzonitrile]	6.63	6.64	8.05			
Fc1ccc(N2CCC(C3c4c(F)cccc4-c4cncn43)CC2)cc1F (centres unmarked) [Example 46, 5-(1-(3,4-difluorophenyl)piperidin-4-yl)-6-fluoro-5H-imidazo[5,1-a]isoindole]		7.16		7.16	8.18	
